Laboratory results taken from US9040458B2, “Safening composition of 6-(trisubstituded phenyl)-4-amino-2-pyridinecarboxylate herbicides and cloquintocet-mexyl for cereal crops” (Dow AgroSciences LLC, priority 2008, dated 2015).
Where a name gives a salt, the structure may show the parent alone.

Assays:
[1] = tested on: LAMPU (purple deadnettle); assay: Postemergence herbicidal activity, greenhouse, visual injury; assay type: in vivo, Lamium purpureum; conditions: applied alone at 140 g/ha; 20-22 d
Description: (§1) Seeds of the desired test plant species were planted in Sun Gro MetroMix® 306 planting mixture, which typically has a pH of 6.0 to 6.8 and an organic matter content of about 30 percent, in plastic pots with a surface area of 103.2 square centimeters (cm^2). When required to ensure good germination and healthy plants, a fungicide treatment and/or other chemical or physical treatment was applied. The plants were grown for 7-36 days (d) in a greenhouse with an approximate […] photoperiod which was maintained at about 18° C. during the day and 17° C. during the night. Nutrients and water were added on a regular basis and supplemental lighting was provided with overhead metal halide 1000-Watt lamps as necessary. The plants were employed for testing when they reached the second or third true leaf stage.
(§2) Weighed amounts of esters (methyl) or salts (TEA [triethylammonium], potassium [K]) of 4-amino-3-chloro-6-(4-chloro-2-fluoro-3-methoxyphenyl)pyridine-2-carboxylic acid (Compound 1) were dissolved in a volume of 97:3 volume/volume (v/v) acetone/dimethylsulfoxide (DMSO) to obtain stock solutions. […] The concentrated stock solutions were diluted with an aqueous mixture of 1.5% v/v of Agri-dex crop oil concentrate to provide the appropriate application rates. Compound requirements are based upon a 12 mL application volume at a rate of 187 liters per hectare (L/ha). Stocks solutions of the safeners were prepared following the same procedure. Spray solutions of the safeners and experimental compound mixtures were prepared by adding the appropriate volume of both stock solutions to the appropriate amount of dilution solution to form a 12 mL spray solution with active ingredients in two-way combinations. Formulated compounds were applied to the plant material with an overhead Mandel track sprayer equipped with 8002E nozzles calibrated to deliver 187 L/ha over an application area of 0.503 square meters (m^2) at a spray height of 18 inches (43 centimeters (cm)) above average plant canopy. Control plants were sprayed in the same manner with the solvent blank.
(§3) The treated plants and control plants were placed in a greenhouse as described above and watered by sub-irrigation to prevent wash-off of the test compounds. After 20-22 d, the condition of the test plants as compared with that of the control plants was determined visually and scored on a scale of 0 to 100 percent where 0 corresponds to no injury and 100 corresponds to complete kill.
(§4) Colby's equation was used to determine the herbicidal effects expected from the mixtures (Colby, S. R., Calculation of the synergistic and antagonistic response of herbicide combinations. Weeds 1967, 15, 20-22.).
(§5) The following equation was used to calculate the expected activity of mixtures containing two active ingredients, A and B: Expected=A+B−(A×B/100)
(§6) A=observed efficacy of active ingredient A at the same concentration as used in the mixture.
(§7) B=observed efficacy of active ingredient B at the same concentration as used in the mixture.

[2] = tested on: TRZDU = Triticum durum (durum wheat); assay: Postemergence herbicidal safening, greenhouse, visual injury; assay type: in vivo; conditions: applied alone at 140 g/ha; 20-22 d
Description: as §1, §2, §3, §4, §5, §6, §7

[3] = tested on: TRZAS = Triticum aestivum (spring wheat); assay: as above; assay type: in vivo; conditions: 20-22 d, listed as (1) TEA salt
Description: as §1, §2, §3, §4, §5, §6, §7

[4] = tested on: HORVS = Hordeum vulgare (spring barley); assay: as above; assay type: in vivo; conditions: 20-22 d, listed as (1) TEA salt
Description: as §1, §2, §3, §4, §5, §6, §7

[5] = tested on: TRZAW = Triticum aestivum (winter wheat); assay: as above; assay type: in vivo; conditions: applied alone at 140 g/ha; 20-22 d; listed as (1) TEA salt
Description: as §1, §2, §3, §4, §5, §6, §7

PAPRH (corn poppy) = assay: Postemergence herbicidal activity, greenhouse, visual injury; assay type: in vivo, Papaver rhoeas; conditions: applied alone at 140 g/ha; 20-22 d
Description: as §1, §2, §3, §4, §5, §6, §7

POLCO (wild buckwheat) = assay: as above; assay type: in vivo, Polygonum convolvulus; conditions: applied alone at 140 g/ha; 20-22 d
Description: as §1, §2, §3, §4, §5, §6, §7

[6] = tested on: SASKR = Salsola iberica (Russian thistle); assay: as above; assay type: in vivo; conditions: applied alone at 140 g/ha; 20-22 d; listed as (1) TEA salt
Description: as §1, §2, §3, §4, §5, §6, §7

[7] = tested on: VERPE = Veronica persica (bird's-eye speedwell); assay: as above; assay type: in vivo; conditions: applied alone at 140 g/ha; 20-22 d; listed as (1) TEA salt
Description: as §1, §2, §3, §4, §5, §6, §7

[8] = tested on: VIOTR = Viola tricolor (wild pansy); assay: as above; assay type: in vivo; conditions: applied alone at 140 g/ha; 20-22 d; listed as (1) TEA salt
Description: as §1, §2, §3, §4, §5, §6, §7

[9] = tested on: MATCH = Matricaria chamomila (scented mayweed); assay: as above; assay type: in vivo; conditions: applied alone at 140 g/ha; 20-22 d; listed as (1) TEA salt
Description: as §1, §2, §3, §4, §5, §6, §7

[10] = tested on: KCHSC = Kochia scoparia (kochia); assay: as above; assay type: in vivo; conditions: applied alone at 140 g/ha; 20-22 d; listed as (1) TEA salt
Description: as §1, §2, §3, §4, §5, §6, §7

[11] = tested on: STEME = Stellaria media (common chickweed); assay: as above; assay type: in vivo; conditions: applied alone at 140 g/ha; 20-22 d
Description: as §1, §2, §3, §4, §5, §6, §7

HORVW (winter barley) = assay: Postemergence herbicidal safening, greenhouse, visual injury; assay type: in vivo, Hordeum vulgare; conditions: applied alone at 140 g/ha; 20-22 d; listed as (1) TEA salt
Description: as §1, with “stage. […]” for “stage.”
as §3, with “kill. […]” for “kill.”

COc1c(Cl)ccc(-c2cc(N)c(Cl)c(C(=O)O)n2)c1F [Compound (1) TEA salt, 4-amino-3-chloro-6-(4-chloro-2-fluoro-3-methoxyphenyl)pyridine-2-carboxylic acid]
LAMPU Ob (observed injury) [1]: 98%
TRZDU Ob (observed injury) [2]: 10%
TRZAS Ob (observed injury) ([3]; applied alone at 8.75 g/ha): 5%
TRZAS Ob (observed injury) ([3]; applied alone at 35 g/ha): 15%
TRZAS Ob (observed injury) ([3]; applied alone at 70 g/ha): 10%
TRZAS Ob (observed injury) ([3]; applied alone at 140 g/ha): 27%
HORVS Ob (observed injury) ([4]; applied alone at 8.75 g/ha): 25%
HORVS Ob (observed injury) ([4]; applied alone at 35 g/ha): 23%
HORVS Ob (observed injury) ([4]; applied alone at 140 g/ha): 23%
TRZAW Ob (observed injury) [5]: 24%
PAPRH Ob (observed injury) (PAPRH (corn poppy)): 100%
POLCO Ob (observed injury) (POLCO (wild buckwheat)): 100%
SASKR Ob (observed injury) [6]: 86%
VERPE Ob (observed injury) [7]: 89%
VIOTR Ob (observed injury) [8]: 66%
MATCH Ob (observed injury) [9]: 84%
KCHSC Ob (observed injury) [10]: 95%
STEME Ob (observed injury) [11]: 88%
HORVW Ob (observed injury) (HORVW (winter barley)): 15%
